A melting point compilation (Tetko et al.; mined from patent text by program, amines drawn as free bases though some values may be those of a salt)

Structure (SMILES) | melting point [°C]
NC(=O)c1cn(-c2ccccc2)nc1-c1ccc([N+](=O)[O-])o1 | 236 to 238
Nc1nc2ccccc2n1-c1cccc(-c2cccs2)c1 | 142 to 144
CCOC(=O)c1ccc(C=C(C)c2cc3c(cc2C)C(C)(C)CCC3(C)C)cc1 | 109 to 110
N#Cc1c(N2CCCCC2)cc(-c2cccc3ccccc23)c2c1-c1ccccc1C2=O | 180 to 182
O=C1c2c(Cl)cccc2-c2cc(O)cc3cccc1c23 | 308 to 312
CS(=O)c1ccc(S(=O)(=O)N2CCCC(c3ccccc3)=N2)cc1 (centres undefined) | 137 to 139
NC(=O)c1ccc(C(c2ccccc2[N+](=O)[O-])(C(F)(F)F)C(F)(F)F)cc1 | 147 to 148
CC(=O)Nc1cc(C)c([N+](=O)[O-])cn1 | 153 to 154
Cc1cc(Cl)ccc1OCC(=O)N1Cc2ccc(C(=O)c3ccc(-c4ccccc4)cc3)n2Cc2ccccc21 | 102 to 105
CCOC(=O)C1=Cc2cc(I)ccc2NC1C(F)(F)F (centres undefined) | 137 to 138
Fc1ccc(C23CNCC(CO2)O3)cc1 (centres undefined) | 89
C[C@H](NC(=O)c1nc(CCCc2ccccc2)c[nH]1)C(=O)NC(C=O)CC(=O)O (some centres undefined) | 94 to 96
CC1(C)C=C(n2cc(C#N)c3ccccc32)c2cc(C#N)ccc2O1 | 192 to 193
O=C(Nc1ccc(OC(F)(F)F)cc1)N[C@H]1CC[C@@H](Oc2ccc(C(=O)O)cc2)CC1 | 210 to 212
Cc1cccc2c1N=C(Cl)c1cscc1O2 | 160 to 161
CC(=O)NC[C@H]1CN(c2ccc(C3=CCOCC3)c(F)c2)C(=O)O1 | 148 to 151
CN(CCNc1ccc2ncc(Br)n2n1)C(=O)OC(C)(C)C | 128 to 129
CCCCCN(C[C@H]1CC[C@H](CN(CCCCC)C(=O)Nc2ccc(N(C)C)cc2)CC1)C(=O)Nc1ccc(N(C)C)cc1 | 205 to 208
c1ccc2[nH]c3c4ccccc4nc-3cc2c1 | 249 to 251
Cc1cc(C(C)(C)C)c(O)c(C)c1COC(=O)CCCCC(=O)OCc1c(C)cc(C(C)(C)C)c(O)c1C | 156 to 158
CC(=C1SC(=O)NC1=O)c1ccc(OCCOc2c(-c3ccc(F)c(F)c3)n(C)c3ccccc3c2=O)c(F)c1 | 204 to 206
CC1(C)Oc2cc([N+](=O)[O-])c(NC(=O)Cc3ccc(-c4ccccc4)cc3)cc2C2OC21 (centres undefined) | 171 to 174
CC(=O)Nc1sccc1C(=O)c1ccccc1F | 144
CCCOC(C(Cc1ccc(Cl)cc1)n1cncn1)C1(C)COCOC1 (centres undefined) | 94 to 96
O=c1[nH]ncc2c(OCC3CO3)cccc12 (centres undefined) | 173 to 174

Structure (SMILES) | melting point [°C]
Cc1cccc2c3c(n(Cc4ccc(Cl)cc4)c12)C(CC(=O)O)CCC3 (single isomer, unassigned; (-)) | 196 to 198
CCc1cccc2c3c([nH]c12)C(CC)(CC(O)O)OCC3 (centres undefined) | 158 to 159
O=S(c1nc2ccccc2s1)N1CCOCC1 (centres undefined) | 93 to 94
OC(CCN1CC=C(c2ccc(Cl)cc2)CC1)c1ccc(Cc2ccccn2)cc1 (centres undefined) | 129 to 131
CNC1C(O)CC2C3CCC4CC(O)CCC4(C)C3CCC21C (centres undefined) | 241 to 253
Cc1cc(=O)n(C(=O)Oc2c(C(=O)c3ccc(Cl)cc3Cl)c(C)nn2C)o1 | 180 to 182
Fc1ccc(Cl)c2sc(CBr)cc12 | 89 to 90
O=C1N(c2ccc(Br)cc2)C(Cl)(Cl)C2CCCCC12Cl (centres undefined) | 148 to 150
CCOC(=O)Nc1nc(C)c(-c2nc3ccccc3c(=O)n2-c2ccccc2Cl)s1 | 246 to 247
O=C(O)c1cc2cc([N+](=O)[O-])ccc2[nH]c1=O | > 310
CC1CC(=O)N(CCCCN2C(=O)c3ccccc3C2=O)C1=O (centres undefined) | 79 to 80
S=C1Nc2ccccc2Cn2cccc21 | 228 to 231
COc1c(-n2cccc2)cc(CC(C#N)=CNc2ccccc2)cc1-n1cccc1 | 152
CCOC(=O)C1[C@@H]2[C@@H](O)[C@@H]3O[C@H](c4ccc(C(C)(C)C)cc4)OC[C@H]3O[C@H]12 (some centres undefined) | 113 to 116
O=Cc1cccn1-c1ccccc1[N+](=O)[O-] | 119 to 122
CS(=O)(=O)Nc1ccc(-c2ccc(S(=O)(=O)n3ccc(C=CC(=O)NO)c3)cc2)cc1 | 160 to 167
O=c1c2ccccc2ncn1-c1nnn[nH]1 | 259 to 260
COc1ccc(C2(O)c3cc(NC(=O)CC(C)(C)C)c(C)c(C)c3OC2(C)C)c(OC)c1 (centres undefined) | 150 to 151
Nc1ccc(OCC2CCN(c3ccncc3)CC2)cc1 | 207 to 209
CN1Cc2c(C(=O)OCC3CC3)ncn2-c2ccc(F)cc2C1=O | 156 to 157
CC(C)c1cccc(-n2c(C(=O)Nc3ccc4c(ccn4C)c3)cc3cc(OC(F)(F)F)ccc32)c1 | 164 to 165
CC(C)(C)NC(=O)[C@@H]1C[C@H](Cl)CN1C(=O)OC(C)(C)C | 149 to 150
COC(=O)CCCOc1cc(C(=O)O)ccc1NC(=O)NC(=O)c1cc(F)c(F)cc1Cl | 227
O=[N+]([O-])c1cc(C(F)(F)F)cc2sc(=S)sc12 | 163 to 165
